Experimental data reported in US10111890B2, “9-aminomethyl minocycline compounds and uses thereof” (Paratek Pharmaceuticals, Inc., priority 2016, dated 2018).

Columns and labels:
[1] = human, in vivo
[2] = tested on: ABSSSI known or suspected to be due to Gram-positive pathogens; assay: Phase 3 oral omadacycline vs oral linezolid in ABSSSI: Investigator's Assessment of Clinical Response at PTE; assay type: in vivo, human; settings: for Overall Clinical Success at PTE, %: micro-mITT, % of N1
[3] = Cellulitis/erysipelas, actual type, mITT
[4] = Cellulitis/erysipelas, as randomized, mITT
[5] = Major Abscess, actual type, mITT
[6] = Major Abscess, as randomized, mITT
[7] = Wound Infection, actual type, mITT
[8] = Wound Infection, as randomized, mITT

CC(=O)NCC1CN(c2ccc(N3CCOCC3)c(F)c2)C(=O)O1 (stereo not drawn) [Linezolid, N-[[3-(3-fluoro-4-morpholinophenyl)-2-oxooxazolidin-5-yl]methyl]acetamide, reference compound]
discontinuation due to TEAE, % of subjects [1]: 2.2%
serious TEAEs, % of subjects [1]: 2.5%
treatment-emergent adverse events (TEAEs), % of subjects [1]: 45.7%
Overall clinical response at PTE: Clinical Success ([2]; Cellulitis/erysipelas, actual type of infection, investigator assessment, mITT): 78 (92.9) n (%)
Overall clinical response at PTE: Clinical Failure [2, 3]: 1 (1.2) n (%)
Overall clinical response at PTE: Clinical Failure or Indeterminate [2, 3]: 6 (7.1) n (%)
Overall clinical response at PTE: Indeterminate [2, 3]: 5 (6.0) n (%)
Overall clinical response at PTE: Clinical Failure [2, 4]: 1 (1.2) n (%)
Overall clinical response at PTE: Clinical Failure or Indeterminate [2, 4]: 6 (7.1) n (%)
Overall clinical response at PTE: Indeterminate [2, 4]: 5 (6.0) n (%)
Overall clinical response at PTE: Clinical Success ([2]; Cellulitis/erysipelas, type of infection as randomized, investigator assessment, mITT): 78 (92.9) n (%)
Overall clinical response at PTE: Clinical Success ([2]; Major Abscess, actual type of infection, investigator assessment, mITT): 49 (79.0) n (%)
Overall clinical response at PTE: Clinical Failure [2, 5]: 3 (4.8) n (%)
Overall clinical response at PTE: Clinical Failure or Indeterminate [2, 5]: 13 (21.0) n (%)
Overall clinical response at PTE: Indeterminate [2, 5]: 10 (16.1) n (%)
Overall clinical response at PTE: Clinical Failure [2, 6]: 3 (4.8) n (%)
Overall clinical response at PTE: Clinical Failure or Indeterminate [2, 6]: 13 (21.0) n (%)
Overall clinical response at PTE: Indeterminate [2, 6]: 10 (16.1) n (%)
Overall clinical response at PTE: Clinical Success ([2]; Major Abscess, type of infection as randomized, investigator assessment, mITT): 49 (79.0) n (%)
Overall clinical response at PTE: Clinical Success ([2]; Wound Infection, actual type of infection, investigator assessment, mITT): 164 (76.6) n (%)
Overall clinical response at PTE: Clinical Failure [2, 7]: 17 (7.9) n (%)
Overall clinical response at PTE: Clinical Failure or Indeterminate [2, 7]: 50 (23.4) n (%)
Overall clinical response at PTE: Indeterminate [2, 7]: 33 (15.4) n (%)
Overall clinical response at PTE: Clinical Failure [2, 8]: 17 (7.9) n (%)
Overall clinical response at PTE: Clinical Failure or Indeterminate [2, 8]: 50 (23.4) n (%)
Overall clinical response at PTE: Indeterminate [2, 8]: 33 (15.4) n (%)
Overall clinical response at PTE: Clinical Success ([2]; Wound Infection, type of infection as randomized, investigator assessment, mITT): 164 (76.6) n (%)
Overall Clinical Success at PTE, % ([2]; baseline pathogen Clostridium perfringens, investigator assessment): (77.8) %
Overall Clinical Success at PTE, % ([2]; baseline pathogen Enterobacter cloacae, investigator assessment): (100.0) %
Overall Clinical Success at PTE, % ([2]; baseline pathogen Enterococcus faecalis VRE, investigator assessment): (100.0) %
Overall Clinical Success at PTE, % ([2]; baseline pathogen Enterococcus faecalis VSE, investigator assessment): (70.0) %
Overall Clinical Success at PTE, % ([2]; baseline pathogen Enterococcus faecalis, investigator assessment): (75.0) %
Overall Clinical Success at PTE, % ([2]; baseline pathogen Enterococcus faecium VSE, investigator assessment): (100.0) %
Overall Clinical Success at PTE, % ([2]; baseline pathogen Enterococcus faecium, investigator assessment): (100.0) %
Overall Clinical Success at PTE, % ([2]; baseline pathogen Escherichia coli, investigator assessment): (100.0) %
Overall Clinical Success at PTE, % ([2]; baseline pathogen Finegoldia magna, investigator assessment): (0.0) %
Overall Clinical Success at PTE, % ([2]; baseline pathogen Klebsiella pneumoniae, investigator assessment): (66.7) %
Overall Clinical Success at PTE, % ([2]; baseline pathogen MRSA, investigator assessment): (79.4) %
Overall Clinical Success at PTE, % ([2]; baseline pathogen MSSA, investigator assessment): (79.2) %
Overall Clinical Success at PTE, % ([2]; baseline pathogen Prevotella denticola, investigator assessment): (0.0) %
Overall Clinical Success at PTE, % ([2]; baseline pathogen Prevotella melaninogenica, investigator assessment): (100.0) %
Overall Clinical Success at PTE, % ([2]; baseline pathogen Staphylococcus aureus, investigator assessment): (79.8) %
Overall Clinical Success at PTE, % ([2]; baseline pathogen Streptococcus agalactiae, investigator assessment): (50.0) %
Overall Clinical Success at PTE, % ([2]; baseline pathogen Streptococcus anginosus group, investigator assessment): (73.3) %
Overall Clinical Success at PTE, % ([2]; baseline pathogen Streptococcus anginosus, investigator assessment): (80.0) %
Overall Clinical Success at PTE, % ([2]; baseline pathogen Streptococcus constellatus, investigator assessment): (71.4) %
Overall Clinical Success at PTE, % ([2]; baseline pathogen Streptococcus intermedius, investigator assessment): (66.7) %
Overall Clinical Success at PTE, % ([2]; baseline pathogen Streptococcus pyogenes, investigator assessment): (56.3) %
Overall clinical response at PTE: Clinical Failure ([2]; investigator assessment, CE-PTE): 13 (4.5) n (%)
Overall clinical response at PTE: Clinical Success ([2]; investigator assessment, CE-PTE (N = 284 / N = 292)): 279 (95.5) n (%)
Overall clinical response at PTE: Clinical Failure ([2]; investigator assessment, mITT): 21 (5.8) n (%)
Overall clinical response at PTE: Clinical Failure or Indeterminate ([2]; investigator assessment, mITT): 69 (19.2) n (%)
Overall clinical response at PTE: Indeterminate ([2]; investigator assessment, mITT): 48 (13.3) n (%)
Overall clinical response at PTE: Clinical Success ([2]; investigator assessment, mITT (N = 360 per arm)): 291 (80.8) n (%)
